Measurements as given in patent US20250115569A1, “SULFONAMIDE COMPOUNDS FOR THE TREATMENT OF NEUROLOGICAL CONDITIONS” (LARIO THERAPEUTICS LIMITED, priority 2021, published 2025).

Tests used:
[1] = target: R-type calcium current in substantia nigra dopamine neurons (Mus musculus (Mouse), UniProt Q61290); test: Ex vivo whole cell patch clamp in substantia nigra dopamine neurons, mouse brain slice; assay type: cell-based; settings: concentrations of 10 μM
Experimental: Compounds of the invention were tested on R-type calcium current with whole cell patch clamp electrophysiology in substantia nigra dopamine neurons in an ex vivo brain slice preparation according to the methods described in Siller et al., Elife, 11:e67464 (2022) https://doi.org/i0.7554/eLife.67464.

MES model of epilepsy = test: Maximal electroshock stimulation model (MES) in mouse; assay type: in vivo; settings: 1.5 mg/kg, oral administration
Experimental: Compounds of the invention were tested in an in vivo model of epilepsy, the MES model in mouse, according to the method described in Kehne et al, Neurochemistry Research 42:1894-1903 (2017) 1 https://doi.org/10.1007/s11064-017-2275-z.

Cav2.3 = Cav2.3 (Homo sapiens, UniProt Q15878); test: Whole-cell patch clamp assay (QPatch) in HEK-293 T-Rex/Kir2.1/Cav2.3e-β4-α2δ1 cells; assay type: cell-based; settings: QPatch 16X, room temperature, mean ± S.E, read-out: Cav2.3 (pIC50) (converted)
Cav2.3, sequence (Q15878 whole entry, looked up): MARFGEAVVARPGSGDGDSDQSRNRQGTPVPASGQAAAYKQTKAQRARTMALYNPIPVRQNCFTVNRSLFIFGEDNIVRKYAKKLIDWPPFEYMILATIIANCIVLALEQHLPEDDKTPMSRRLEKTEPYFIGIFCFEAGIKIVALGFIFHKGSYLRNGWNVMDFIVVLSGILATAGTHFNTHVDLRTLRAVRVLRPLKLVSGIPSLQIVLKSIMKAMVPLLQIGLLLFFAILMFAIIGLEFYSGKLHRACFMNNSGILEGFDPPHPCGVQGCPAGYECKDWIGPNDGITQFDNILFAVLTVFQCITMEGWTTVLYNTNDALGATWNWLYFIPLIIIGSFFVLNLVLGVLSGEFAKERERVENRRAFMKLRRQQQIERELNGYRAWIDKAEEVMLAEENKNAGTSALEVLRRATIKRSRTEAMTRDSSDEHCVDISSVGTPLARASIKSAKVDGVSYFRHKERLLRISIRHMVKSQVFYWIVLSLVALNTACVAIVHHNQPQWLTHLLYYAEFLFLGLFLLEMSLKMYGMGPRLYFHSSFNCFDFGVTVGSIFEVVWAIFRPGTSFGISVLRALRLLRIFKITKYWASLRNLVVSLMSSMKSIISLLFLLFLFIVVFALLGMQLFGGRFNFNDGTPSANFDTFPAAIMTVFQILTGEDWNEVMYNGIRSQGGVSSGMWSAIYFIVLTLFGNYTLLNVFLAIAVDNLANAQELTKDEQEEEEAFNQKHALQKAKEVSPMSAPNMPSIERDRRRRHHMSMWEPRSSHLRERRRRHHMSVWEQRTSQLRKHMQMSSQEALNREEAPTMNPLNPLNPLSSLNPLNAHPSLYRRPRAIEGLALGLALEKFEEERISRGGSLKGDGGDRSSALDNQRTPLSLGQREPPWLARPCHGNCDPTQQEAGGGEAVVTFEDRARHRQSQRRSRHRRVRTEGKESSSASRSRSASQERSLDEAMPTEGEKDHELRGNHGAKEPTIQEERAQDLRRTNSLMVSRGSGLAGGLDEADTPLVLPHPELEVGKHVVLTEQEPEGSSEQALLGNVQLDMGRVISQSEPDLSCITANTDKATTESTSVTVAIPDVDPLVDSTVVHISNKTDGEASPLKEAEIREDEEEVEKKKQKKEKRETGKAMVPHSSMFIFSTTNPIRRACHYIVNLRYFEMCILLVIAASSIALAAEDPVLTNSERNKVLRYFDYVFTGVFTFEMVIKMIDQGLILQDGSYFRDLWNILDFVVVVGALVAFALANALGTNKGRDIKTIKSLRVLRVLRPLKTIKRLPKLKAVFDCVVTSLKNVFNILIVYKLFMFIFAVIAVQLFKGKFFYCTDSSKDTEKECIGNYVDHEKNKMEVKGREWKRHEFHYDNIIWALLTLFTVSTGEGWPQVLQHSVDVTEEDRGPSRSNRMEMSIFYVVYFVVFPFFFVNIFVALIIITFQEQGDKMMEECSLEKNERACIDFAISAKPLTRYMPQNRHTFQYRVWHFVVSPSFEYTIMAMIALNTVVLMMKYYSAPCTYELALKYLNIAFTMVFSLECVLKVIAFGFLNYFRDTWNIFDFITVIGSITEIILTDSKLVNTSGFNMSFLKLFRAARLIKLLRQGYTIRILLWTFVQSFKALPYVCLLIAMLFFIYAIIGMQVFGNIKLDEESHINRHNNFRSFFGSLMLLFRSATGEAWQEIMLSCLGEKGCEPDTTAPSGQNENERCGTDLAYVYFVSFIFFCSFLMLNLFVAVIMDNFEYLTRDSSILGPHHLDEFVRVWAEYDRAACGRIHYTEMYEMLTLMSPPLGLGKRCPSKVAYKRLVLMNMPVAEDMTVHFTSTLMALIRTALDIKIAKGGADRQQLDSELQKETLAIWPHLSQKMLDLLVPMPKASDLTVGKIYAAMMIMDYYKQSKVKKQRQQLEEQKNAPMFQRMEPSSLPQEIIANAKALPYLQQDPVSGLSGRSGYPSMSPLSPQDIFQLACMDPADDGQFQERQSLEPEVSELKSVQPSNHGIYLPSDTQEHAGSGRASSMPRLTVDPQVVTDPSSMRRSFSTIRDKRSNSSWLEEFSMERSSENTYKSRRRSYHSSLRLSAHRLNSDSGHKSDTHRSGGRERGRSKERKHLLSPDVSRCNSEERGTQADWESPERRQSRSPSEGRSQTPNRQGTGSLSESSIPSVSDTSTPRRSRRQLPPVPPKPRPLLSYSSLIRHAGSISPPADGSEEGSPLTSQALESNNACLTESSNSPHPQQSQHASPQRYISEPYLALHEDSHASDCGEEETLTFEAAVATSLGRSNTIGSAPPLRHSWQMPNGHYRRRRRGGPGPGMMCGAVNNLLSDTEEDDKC
Experimental: HEK-293 T-Rex/Kir2.1/Cav2.3e-β4-α2δ1 cells were seeded 96 hours before experiment and doxycycline at 0.2 μg/mL was added 24 hours before experiment. Just before the experiments cells were washed twice with D-PBS w/o Ca^2+/Mg^2+ and gently detached from the flask with Detachin. Cells were then re-suspended in the suspension solution (25 mL EX-CELL ACF CHO medium; 0.25 mL of 100× Penicillin/Streptomycin) and placed on the Automated Patch-clamp platform (QPatch 16X).
Standard whole-cell voltage clamp experiments were performed at room temperature using the single hole technology and the following intracellular and extracellular solutions (ICS and ECS, respectively) were used. ICS (mM): CsF 60, CsCl 50, NaCl 10, EGTA 20, BAPTA 5, HEPES 10, NaGTP 0.3, MgATP 5 (pH 7.2; ECS (mM): NMDG-Cl 120, BaCl2 20, HEPES 10, EGTA 7 (pH 7.4). After establishment of the seal and the passage in the whole-cell configuration, the Cav2.3 dependent current was evoked by challenging the cells with the following voltage protocol: the plasma membrane was held at −80 mV then a 50 ms-long depolarizing pulse at 0 mV, followed by a 50 ms-long hyperpolarizing pulse at −100 mV were applied and finally the plasma membrane was held back to −80 mV. This voltage protocol was applied every 10 seconds. Cav2.3 dependent current was first measured in control condition (vehicle, 0.1% DMSO), in the presence of increasing concentration of the compound under investigation and finally SNX 482 was added to fully block any R-type Cav2.3 dependent current.
For data collection, the Sophion proprietary software was used while the analysis was performed off-line using Excel and GraphPad Prism. The inward current (Area Under Curve) measured during each depolarizing pulse was normalized to cell membrane capacitance (Cm) to obtain the average inward current density in each condition (control, compound under investigation and SNX 482). Then, the inhibitory effect of the compound under investigation was evaluated as % of the remaining inward current, normalized to the internal control. […] All data were expressed as mean±S.E

Human Cav2.3 channel = Human Cav2.3 channel calcium-influx assay; assay type: cell-based; settings: Fluo8 fluorescence, HEK-293 T-Rex/Kir2.1/Cav2.3e cells, without pluronic acid
Summary of the method: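 Signal = peak fluorescence (5–130 s) minus baseline (1–2 s), normalized to neutral (0) and inhibitor (−100) controls as % effect. Depolarization used final 20 mM KCl, 130 mM NaCl, 2 mM CaCl2, after 3 min RT compound exposure (30 μM top, half-log, 8 points, 0.3% DMSO) in doxycycline-induced HEK-293 T-Rex/Kir2.1/Cav2.3e-β4-α2δ1 cells with Fluo8 NW.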

R-type calcium current in substantia nigra dopamine neurons, sequence (Q61290 whole entry): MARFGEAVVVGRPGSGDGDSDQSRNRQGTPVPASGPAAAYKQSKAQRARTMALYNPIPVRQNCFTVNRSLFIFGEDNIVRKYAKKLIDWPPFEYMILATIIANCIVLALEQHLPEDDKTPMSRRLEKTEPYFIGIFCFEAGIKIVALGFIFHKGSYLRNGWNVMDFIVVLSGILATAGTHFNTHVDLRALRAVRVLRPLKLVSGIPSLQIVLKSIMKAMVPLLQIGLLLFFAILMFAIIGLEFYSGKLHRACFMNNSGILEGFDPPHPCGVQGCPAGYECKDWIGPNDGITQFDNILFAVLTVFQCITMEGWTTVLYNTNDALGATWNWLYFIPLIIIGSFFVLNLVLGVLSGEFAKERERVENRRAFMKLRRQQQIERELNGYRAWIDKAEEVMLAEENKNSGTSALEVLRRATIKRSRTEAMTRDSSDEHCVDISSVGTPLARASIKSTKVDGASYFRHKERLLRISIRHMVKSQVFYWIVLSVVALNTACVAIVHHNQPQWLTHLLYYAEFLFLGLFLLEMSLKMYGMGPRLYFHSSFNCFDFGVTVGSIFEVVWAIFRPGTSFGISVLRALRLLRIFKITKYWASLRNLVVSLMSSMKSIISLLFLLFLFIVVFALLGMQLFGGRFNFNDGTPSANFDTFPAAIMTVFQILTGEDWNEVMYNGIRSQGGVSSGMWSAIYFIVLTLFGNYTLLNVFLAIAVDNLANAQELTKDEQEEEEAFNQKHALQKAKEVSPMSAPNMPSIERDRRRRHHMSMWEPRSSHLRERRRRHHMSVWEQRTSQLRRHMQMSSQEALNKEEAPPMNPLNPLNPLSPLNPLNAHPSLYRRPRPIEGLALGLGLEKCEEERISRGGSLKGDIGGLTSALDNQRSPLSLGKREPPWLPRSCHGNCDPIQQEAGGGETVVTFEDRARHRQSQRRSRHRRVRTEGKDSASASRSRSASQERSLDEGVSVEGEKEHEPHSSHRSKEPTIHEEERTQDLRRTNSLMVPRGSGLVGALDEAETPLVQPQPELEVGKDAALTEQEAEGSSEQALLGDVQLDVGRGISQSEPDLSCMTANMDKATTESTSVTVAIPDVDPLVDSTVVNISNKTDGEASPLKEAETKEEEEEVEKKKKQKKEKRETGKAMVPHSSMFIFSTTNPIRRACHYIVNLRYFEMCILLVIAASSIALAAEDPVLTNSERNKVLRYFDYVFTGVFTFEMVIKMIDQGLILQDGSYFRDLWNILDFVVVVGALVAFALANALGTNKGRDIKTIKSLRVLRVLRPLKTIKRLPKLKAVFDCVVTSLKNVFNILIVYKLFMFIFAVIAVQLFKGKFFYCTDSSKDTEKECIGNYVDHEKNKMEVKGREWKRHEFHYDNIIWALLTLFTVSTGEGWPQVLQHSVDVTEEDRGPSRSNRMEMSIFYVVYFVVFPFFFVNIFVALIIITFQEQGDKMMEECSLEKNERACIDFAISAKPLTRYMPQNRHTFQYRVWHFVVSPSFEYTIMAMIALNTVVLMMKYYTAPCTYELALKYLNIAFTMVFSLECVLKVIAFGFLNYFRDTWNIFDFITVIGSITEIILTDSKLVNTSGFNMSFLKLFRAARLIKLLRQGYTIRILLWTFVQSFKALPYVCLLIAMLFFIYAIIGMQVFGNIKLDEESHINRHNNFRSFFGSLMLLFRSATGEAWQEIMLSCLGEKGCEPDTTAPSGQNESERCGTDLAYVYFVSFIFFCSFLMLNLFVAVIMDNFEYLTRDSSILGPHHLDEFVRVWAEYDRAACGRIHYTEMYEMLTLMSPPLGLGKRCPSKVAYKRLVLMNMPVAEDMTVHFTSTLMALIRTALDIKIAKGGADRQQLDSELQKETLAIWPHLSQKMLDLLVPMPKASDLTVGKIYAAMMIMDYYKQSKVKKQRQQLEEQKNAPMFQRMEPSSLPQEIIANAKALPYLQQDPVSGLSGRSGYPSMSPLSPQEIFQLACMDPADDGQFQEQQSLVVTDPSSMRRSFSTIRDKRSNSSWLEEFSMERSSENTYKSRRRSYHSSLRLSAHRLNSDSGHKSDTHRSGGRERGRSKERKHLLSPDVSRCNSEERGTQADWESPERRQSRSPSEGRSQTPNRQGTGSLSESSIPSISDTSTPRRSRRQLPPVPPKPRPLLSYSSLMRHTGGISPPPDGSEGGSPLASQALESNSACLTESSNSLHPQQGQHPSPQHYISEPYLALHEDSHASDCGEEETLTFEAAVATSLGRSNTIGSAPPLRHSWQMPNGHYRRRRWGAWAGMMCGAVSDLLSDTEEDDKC

CCN([C@H](c1ccc(F)cc1)C(F)(F)F)S(=O)(=O)c1cncc(C#N)c1 [Example 35, (R)-5-cyano-N-ethyl-N-(2,2,2-trifluoro-1-(4-fluorophenyl)ethyl)pyridine-3-sulfonamide]
activity blocking R-type calcium current [1]: active | activity in the MES model (MES model of epilepsy): active | IC50 (Cav2.3): 46.8 nM | Cav2.3 (pIC50) (Human Cav2.3 channel): 7.87
